≈ marks a conversion by molar mass, not a printed value.
assay: Solubility in pH 6.8 buffer by high throughput solubility assay; assay type: physicochemical

Compared with CCC(CC)c1ccc(CN2c3ccccc3N(CCCC(=O)N3CCCC3)S2(=O)=O)cc1, O=C(CCCN1c2ccccc2N(Cc2ccc(C(O)C(F)(F)F)cc2)S1(=O)=O)N1CCCC1 (stereo not drawn) is 9.5-fold higher in solubility: 0.6 µg/mL (≈ 1.28 µM) for the first, 5.7 µg/mL (≈ 11.5 µM) for the second.

With O=C(CCCN1c2ccccc2N(Cc2ccc(C(O)(C(F)(F)F)C(F)(F)F)cc2)S1(=O)=O)N1CCCC1 the solubility was 0.45 µg/mL (≈ 0.796 µM).
